Results reported in ChEMBL document CHEMBL4002542, “Rapid preparation of (3R,4S,5R) polyhydroxylated pyrrolidine-based libraries to discover a pharmacological chaperone for treatment of Fabry disease” (Eur J Med Chem, 2017).
The source made the active and inactive calls. The rule behind the calls is not given here.

How the values were obtained:
[1] = tested on: T1, Alpha-galactosidase A (Homo sapiens), P06280 [Q279E]; experiment: Chaperone activity assessed as enhancement of human alpha GAL-A Q279E mutant enzyme activity expressed in COS7 cells at 10 to 100 uM at pH 4.6 pretreated for 60 hrs followed by 4MU-alpha-galactopyranoside substrate addition in presence of N-acetylgalactosamine measured after 1 hr by fluorescence assay relative to control; format: cell-based
T1 sequence (whole entry): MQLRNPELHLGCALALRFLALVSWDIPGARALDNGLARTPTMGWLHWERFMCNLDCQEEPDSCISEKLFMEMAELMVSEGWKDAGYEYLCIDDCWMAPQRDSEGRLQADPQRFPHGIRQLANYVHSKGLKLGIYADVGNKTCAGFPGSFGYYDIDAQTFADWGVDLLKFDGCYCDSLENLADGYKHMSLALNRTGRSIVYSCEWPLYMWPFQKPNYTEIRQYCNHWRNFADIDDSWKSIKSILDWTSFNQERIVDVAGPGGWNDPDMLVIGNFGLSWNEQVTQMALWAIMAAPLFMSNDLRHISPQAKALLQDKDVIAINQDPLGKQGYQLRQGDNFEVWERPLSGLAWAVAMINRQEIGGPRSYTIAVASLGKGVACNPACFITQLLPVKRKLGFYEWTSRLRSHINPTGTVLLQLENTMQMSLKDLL

[2] = biological target: T2, Alpha-mannosidase (Canavalia ensiformis) (UniProt C0HJB3); experiment: Inhibition of jack bean alpha-mannosidase at 100 uM using p-nitrophenyl-glycopyranoside or 4-methylumbelliferyl-glycopyranoside as substrate by spectrophotometric method relative to control
T2 sequence (whole entry): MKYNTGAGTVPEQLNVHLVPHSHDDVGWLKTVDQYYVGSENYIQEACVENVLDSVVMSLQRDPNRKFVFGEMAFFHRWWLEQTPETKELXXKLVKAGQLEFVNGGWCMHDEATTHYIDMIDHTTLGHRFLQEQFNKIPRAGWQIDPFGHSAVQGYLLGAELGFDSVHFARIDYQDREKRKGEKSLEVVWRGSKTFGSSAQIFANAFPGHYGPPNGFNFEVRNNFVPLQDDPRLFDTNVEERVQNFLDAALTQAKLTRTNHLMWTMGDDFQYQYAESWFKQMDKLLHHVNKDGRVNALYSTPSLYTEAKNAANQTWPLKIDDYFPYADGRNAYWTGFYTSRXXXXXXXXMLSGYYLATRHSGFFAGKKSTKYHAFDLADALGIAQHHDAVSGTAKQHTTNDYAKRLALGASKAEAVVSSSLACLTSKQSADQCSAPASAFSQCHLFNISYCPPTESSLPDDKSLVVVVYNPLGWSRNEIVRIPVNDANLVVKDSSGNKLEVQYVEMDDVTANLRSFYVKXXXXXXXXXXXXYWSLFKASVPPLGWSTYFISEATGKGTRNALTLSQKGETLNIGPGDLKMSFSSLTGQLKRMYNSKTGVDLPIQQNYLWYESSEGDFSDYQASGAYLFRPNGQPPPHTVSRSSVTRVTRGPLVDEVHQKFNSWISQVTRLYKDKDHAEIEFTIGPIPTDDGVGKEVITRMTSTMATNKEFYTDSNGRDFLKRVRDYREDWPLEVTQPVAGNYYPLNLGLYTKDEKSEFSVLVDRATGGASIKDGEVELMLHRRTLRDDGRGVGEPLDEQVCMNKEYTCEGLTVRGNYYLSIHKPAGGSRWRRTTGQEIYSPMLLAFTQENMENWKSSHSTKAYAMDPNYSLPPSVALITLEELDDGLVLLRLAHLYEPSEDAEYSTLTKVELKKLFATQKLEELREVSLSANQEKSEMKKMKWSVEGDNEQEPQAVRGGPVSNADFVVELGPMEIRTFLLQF

- Activity [1]: Active
- inhibition [2]: 36%
Structure (SMILES): O=C(CCCCC1CCCCC1)NC[C@H]1N[C@H](CO)[C@H](O)[C@@H]1O
